# According to patent US20020156236A1, “Binding sites for phosphotyrosine binding domains” (priority 1995, published 2002):
# Where a SMILES comes first, the peptide text is derived from it.
# Target: T1, PTB domain/c-erbB2 binding (GST-PTB domain of SHC; c-erbB2 from SKBR3 lysate) (Homo sapiens, UniProt P29353)
# T1 construct: GST-PTB domain fusion proteins were expressed from recombinant baculovirus in sf9 cells; made in house; host or cells: Sf9 cells (recombinant baculovirus) for GST-PTB; c-erbB2 endogenous in SKBR3 cell lysate
# T1 sequence (P29353 156-341): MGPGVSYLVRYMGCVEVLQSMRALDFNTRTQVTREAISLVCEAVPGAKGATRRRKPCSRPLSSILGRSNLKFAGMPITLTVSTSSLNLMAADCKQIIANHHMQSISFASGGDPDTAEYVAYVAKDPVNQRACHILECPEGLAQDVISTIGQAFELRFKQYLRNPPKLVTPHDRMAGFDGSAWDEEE
# Assay: biochemical
# Details: Inhibition (relative inhibition scale of IC50)
row,Compound,IC50 [µM]
1,"CC(C)C[C@H](NC(=O)[C@H](CC(N)=O)NC(=O)[C@H](CC(=O)O)NC(=O)[C@H](C)NC(=O)[C@H](C)NC(=O)[C@@H]1CCCN1C(=O)[C@H](CO)NC(=O)[C@H](Cc1ccccc1)NC(=O)[C@H](C)NC(=O)[C@@H]1CCCN1)C(=O)N[C@@H](Cc1ccc(O)cc1)C(=O)N[C@@H](Cc1ccc(OP(=O)(O)O)cc1)C(=O)N[C@@H](Cc1c[nH]c2ccccc12)C(=O)N[C@@H](CC(=O)O)C(=O)N[C@@H](CCC(N)=O)C(=O)N[C@@H](CC(N)=O)C(=O)N[C@@H](CO)C(=O)N[C@@H](CO)C(=O)N[C@@H](CCC(=O)O)C(=O)N[C@@H](CCC(N)=O)C(=O)NCC(=O)O [PAFSPAADNLY (pY) WDQNSSEQG, PAFSPAADNLY(pY)WDQNSSEQG] (HELM PEPTIDE1{P.A.F.S.P.A.A.D.N.L.Y.[O=C([C@H](Cc1ccc(OP(=O)(O)O)cc1)N[*:1])[*:2]].W.D.Q.N.S.S.E.Q.G}$$$$V2.0)",0.5 to 5
2,"CC(C)C[C@H](NC(=O)[C@H](CC(N)=O)NC(=O)[C@H](C)NC(=O)[C@H](Cc1ccccc1)NC(=O)[C@H](C)NC(=O)[C@@H]1CCCN1C(=O)[C@H](CO)NC(=O)[C@H](Cc1ccccc1)NC(=O)[C@H](C)NC(=O)[C@@H]1CCCN1)C(=O)N[C@@H](Cc1ccc(O)cc1)C(=O)N[C@@H](Cc1ccc(OP(=O)(O)O)cc1)C(=O)N[C@@H](Cc1c[nH]c2ccccc12)C(=O)N[C@@H](CC(=O)O)C(=O)N[C@@H](CCC(N)=O)C(=O)N[C@@H](CC(N)=O)C(=O)N[C@@H](CO)C(=O)N[C@@H](CO)C(=O)N[C@@H](CCC(=O)O)C(=O)N[C@@H](CCC(N)=O)C(=O)NCC(=O)O [PAFSPAFANLY (pY) WDQNSSEQG, PAFSPAFANLY(pY)WDQNSSEQG] (HELM PEPTIDE1{P.A.F.S.P.A.F.A.N.L.Y.[O=C([C@H](Cc1ccc(OP(=O)(O)O)cc1)N[*:1])[*:2]].W.D.Q.N.S.S.E.Q.G}$$$$V2.0)",5 to 50
3,CC(C)C[C@H](NC(=O)[C@H](C)NC(=O)[C@H](CC(=O)O)NC(=O)[C@H](Cc1ccccc1)NC(=O)[C@H](C)NC(=O)[C@@H]1CCCN1C(=O)[C@H](CO)NC(=O)[C@H](Cc1ccccc1)NC(=O)[C@H](C)NC(=O)[C@@H]1CCCN1)C(=O)N[C@@H](Cc1ccc(O)cc1)C(=O)N[C@@H](Cc1ccc(OP(=O)(O)O)cc1)C(=O)N[C@@H](Cc1c[nH]c2ccccc12)C(=O)N[C@@H](CC(=O)O)C(=O)N[C@@H](CCC(N)=O)C(=O)N[C@@H](CC(N)=O)C(=O)N[C@@H](CO)C(=O)N[C@@H](CO)C(=O)N[C@@H](CCC(=O)O)C(=O)N[C@@H](CCC(N)=O)C(=O)NCC(=O)O [PAFSPAFDALY (pY) WDQNSSEQG] (HELM PEPTIDE1{P.A.F.S.P.A.F.D.A.L.Y.[O=C([C@H](Cc1ccc(OP(=O)(O)O)cc1)N[*:1])[*:2]].W.D.Q.N.S.S.E.Q.G}$$$$V2.0),> 50
4,CC(C)C[C@H](NC(=O)[C@H](CC(=O)O)NC(=O)[C@H](CC(=O)O)NC(=O)[C@H](Cc1ccccc1)NC(=O)[C@H](C)NC(=O)[C@@H]1CCCN1C(=O)[C@H](CO)NC(=O)[C@H](Cc1ccccc1)NC(=O)[C@H](C)NC(=O)[C@@H]1CCCN1)C(=O)N[C@@H](Cc1ccc(O)cc1)C(=O)N[C@@H](Cc1ccc(OP(=O)(O)O)cc1)C(=O)N[C@@H](Cc1c[nH]c2ccccc12)C(=O)N[C@@H](CC(=O)O)C(=O)N[C@@H](CCC(N)=O)C(=O)N[C@@H](CC(N)=O)C(=O)N[C@@H](CO)C(=O)N[C@@H](CO)C(=O)N[C@@H](CCC(=O)O)C(=O)N[C@@H](CCC(N)=O)C(=O)NCC(=O)O [PAFSPAFDDLY (pY) WDQNSSEQG] (HELM PEPTIDE1{P.A.F.S.P.A.F.D.D.L.Y.[O=C([C@H](Cc1ccc(OP(=O)(O)O)cc1)N[*:1])[*:2]].W.D.Q.N.S.S.E.Q.G}$$$$V2.0),> 50
